NC(CCCCNS(=O)(=O)c1cc(S(=O)(=O)NCCCCC(N)C(=O)O)c2ccc3c(O)cc(O)c4ccc1c2c43)C(=O)O (stereo not shown)
melting point: 210 to 212 °C (dec.)

— US9199928B2, “Fluorescent dye for pH sensor” (SARTORIUS STEDIM BIOTECH GMBH, priority 2011, dated 2015)
